Data set [1] can be described thus: Drug uptake in human CD3-/CD56- B lymphocytes treated for 30 mins by flow cytometry. The following applies: b-cell, 0.5 h. It is filed as ADME, cell-based.
Data set [2] can be described thus: Drug uptake in human CD3+/CD56- T lymphocytes treated for 30 mins by flow cytometry. Type of data set: ADME, cell-based. Conditions: t-cell, 0.5 h; call rule not given here.
The target of the next data set is T1, Toll-like receptor 7 (Homo sapiens, UniProt Q9NYK1).
T1 sequence (Q9NYK1 whole entry): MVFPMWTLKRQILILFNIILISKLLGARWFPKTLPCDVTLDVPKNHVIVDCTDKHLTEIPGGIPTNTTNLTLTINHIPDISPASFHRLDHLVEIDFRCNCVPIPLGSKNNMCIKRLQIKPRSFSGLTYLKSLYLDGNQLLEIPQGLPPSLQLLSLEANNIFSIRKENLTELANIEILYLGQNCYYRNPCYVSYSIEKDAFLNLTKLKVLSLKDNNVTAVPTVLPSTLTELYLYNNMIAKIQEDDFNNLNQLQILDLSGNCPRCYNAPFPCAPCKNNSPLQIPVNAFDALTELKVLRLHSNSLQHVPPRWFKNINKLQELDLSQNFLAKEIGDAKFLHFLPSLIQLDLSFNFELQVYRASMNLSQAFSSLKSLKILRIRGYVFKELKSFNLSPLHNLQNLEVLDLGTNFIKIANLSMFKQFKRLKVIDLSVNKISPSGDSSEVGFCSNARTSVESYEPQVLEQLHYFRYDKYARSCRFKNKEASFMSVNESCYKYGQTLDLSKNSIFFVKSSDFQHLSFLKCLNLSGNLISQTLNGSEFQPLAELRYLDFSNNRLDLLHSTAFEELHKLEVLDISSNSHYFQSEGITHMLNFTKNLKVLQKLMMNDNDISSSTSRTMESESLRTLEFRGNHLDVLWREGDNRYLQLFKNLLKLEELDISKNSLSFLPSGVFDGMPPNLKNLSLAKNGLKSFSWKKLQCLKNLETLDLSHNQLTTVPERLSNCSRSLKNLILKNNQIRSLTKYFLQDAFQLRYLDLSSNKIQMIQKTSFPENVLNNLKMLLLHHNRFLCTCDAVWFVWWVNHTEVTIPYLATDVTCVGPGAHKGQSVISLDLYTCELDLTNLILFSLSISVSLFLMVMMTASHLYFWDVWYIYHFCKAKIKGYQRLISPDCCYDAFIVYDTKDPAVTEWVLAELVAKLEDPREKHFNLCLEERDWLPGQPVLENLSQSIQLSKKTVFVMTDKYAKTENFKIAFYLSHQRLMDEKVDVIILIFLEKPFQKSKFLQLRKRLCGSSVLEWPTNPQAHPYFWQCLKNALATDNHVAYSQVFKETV
The data set is described as follows: Agonist activity at human TLR7 expressed in HEK-Blue-7 cells assessed as increase in NF-kappaB activation by sAP assay. Type of data set: functional, cell-based.

A short description of data set [3]: Drug uptake in human CD3-/CD56+ natural killer cells treated for 30 mins by flow cytometry. It is filed as ADME. The following applies: nk cell, 0.5 h.
Data set [4] is described as follows: Drug uptake in mouse J774.1 cells assessed as perinuclear localization at 100 nM by confocal fluorescence microscopy. Type of data set: ADME, cell-based. The following applies: j774.1, 0.1 µM.

For the compound `CCCCc1nc2c(N)nc3ccccc3c2n1Cc1ccc(CNC(=S)Nc2cccc(-c3c4ccc(=O)cc-4oc4cc(O)ccc34)c2C(=O)O)cc1`, the Drug uptake entry in data set [1], in data set [2] and in data set [3] was “Active” each time. In addition, the concentration for a half-maximal effect (EC50) at Toll-like receptor 7 came to 0.247 µM.

For `CCCCc1nc2c(N)nc3ccccc3c2n1Cc1ccc(CNC(=S)Nc2ccc(-c3c4ccc(=[N+](CC)CC)cc-4oc4cc(N(CC)CC)ccc34)c(C(=O)O)c2)cc1`, the EC50 on Toll-like receptor 7 was found to be 0.115 µM.

For `CCCCc1nc2c(N)nc3ccccc3c2n1Cc1ccc(CNC(=S)NCCCCCNC(=O)COc2ccc(C3=[N+]4C(=Cc5ccc(-c6cccs6)n5[B-]4(F)F)C=C3)cc2)cc1`, the Drug uptake entry in data set [4] is reported as “Active”. Further, the EC50 on Toll-like receptor 7 worked out at 0.108 µM.

As for `CCCCc1nc2c(N)nc3ccccc3c2n1Cc1cccc2ccccc12`, the EC50 at Toll-like receptor 7 is 0.396 µM.

The values above are taken from ChEMBL document CHEMBL1268985, “Syntheses of fluorescent imidazoquinoline conjugates as probes of Toll-like receptor 7” (Bioorg Med Chem Lett, 2010).
